Experimental data: US20230322756A1, “FUSED IMIDAZOLE DERIVATIVE, PREPARATION METHOD THEREFOR, AND MEDICAL USE THEREOF” (JIANGSU HENGRUI MEDICINE CO., LTD., priority 2020, published 2023)

Columns and labels:
hERG potassium channel = hERG potassium channel (Homo sapiens (Human), UniProt Q12809); assay: Blocking effect on hERG potassium currents, manual patch-clamp in CHO cells stably expressing hERG channel; assay type: cell-based; conditions: read-out: IC50 for the blocking effect on the hERG potassium ion channel
Sequence of hERG potassium channel (Q12809 whole entry): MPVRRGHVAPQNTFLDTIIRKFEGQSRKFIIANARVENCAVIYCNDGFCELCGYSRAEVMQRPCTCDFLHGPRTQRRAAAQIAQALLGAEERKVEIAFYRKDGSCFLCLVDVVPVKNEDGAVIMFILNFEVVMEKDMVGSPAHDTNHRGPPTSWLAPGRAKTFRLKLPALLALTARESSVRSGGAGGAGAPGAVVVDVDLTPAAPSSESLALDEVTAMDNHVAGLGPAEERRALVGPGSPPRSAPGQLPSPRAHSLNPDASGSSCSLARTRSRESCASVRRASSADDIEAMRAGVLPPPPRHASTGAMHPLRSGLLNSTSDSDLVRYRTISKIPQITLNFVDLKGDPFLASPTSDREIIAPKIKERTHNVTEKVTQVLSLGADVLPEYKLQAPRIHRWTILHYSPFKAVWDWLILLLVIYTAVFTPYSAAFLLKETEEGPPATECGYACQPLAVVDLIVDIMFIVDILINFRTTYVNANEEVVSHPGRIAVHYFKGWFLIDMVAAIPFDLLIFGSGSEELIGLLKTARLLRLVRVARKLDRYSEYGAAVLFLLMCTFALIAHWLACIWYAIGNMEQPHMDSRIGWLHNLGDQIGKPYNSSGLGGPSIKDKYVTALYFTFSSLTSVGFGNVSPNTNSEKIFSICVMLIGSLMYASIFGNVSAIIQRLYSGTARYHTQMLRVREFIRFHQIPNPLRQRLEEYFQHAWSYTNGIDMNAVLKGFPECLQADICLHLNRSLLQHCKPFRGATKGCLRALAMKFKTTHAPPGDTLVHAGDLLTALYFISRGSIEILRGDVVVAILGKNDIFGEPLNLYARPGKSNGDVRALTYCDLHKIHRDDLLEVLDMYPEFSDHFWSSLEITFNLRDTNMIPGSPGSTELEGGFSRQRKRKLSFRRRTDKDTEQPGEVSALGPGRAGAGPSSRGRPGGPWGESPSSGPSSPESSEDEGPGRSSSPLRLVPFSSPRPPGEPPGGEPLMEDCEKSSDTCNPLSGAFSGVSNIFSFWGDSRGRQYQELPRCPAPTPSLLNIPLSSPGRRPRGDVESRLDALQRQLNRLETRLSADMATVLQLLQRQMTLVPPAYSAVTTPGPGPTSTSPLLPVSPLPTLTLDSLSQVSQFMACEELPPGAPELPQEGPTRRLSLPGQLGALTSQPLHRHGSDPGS
Description: This example is intended to assess the blocking effect of the compounds of the present disclosure and positive compound 1 (see the compound of Example 7 on page 125 of WO2019239319A1) on hERG potassium currents in a stable cell strain transfected with an hERG potassium channel by a manual patch-clamp assay. The structure of positive compound 1 is shown below:
The cells used in this experiment were from a CHO cell line (provided by Sophion Bioscience, Denmark) transfected with hERG cDNA and stably expressing hERG channel at cell passage number of P5. Cells were cultured in a medium containing the following components (all from Invitrogen): Ham's F12 medium, 10% (v/v) inactivated fetal bovine serum, 100 μg/mL hygromycin B, and 100 μg/mL geneticin.
CHO hERG cells were grown in a culture dish containing the above culture medium and cultured in an incubator at 37° C. with 5% CO2. 24-48 h before the electrophysiological experiment, CHO hERG cells were transferred to round slides placed in the culture dish and grown in the same culture medium and culture conditions as above. The density of CHO hERG cells on each round slide was required to achieve the requirement that most cells were independent and individual.
In this experiment, a manual patch-clamp system (HEKA EPC-10 signal amplifier and digital conversion system, purchased from HEKA Electronics, Germany) was used for whole cell current recording. Round slides with CHO hERG cells grown on the surface were placed in an electrophysiological recording chamber under an inverted microscope. The chamber was continuously perfused with extracellular fluid (approximately 1 mL/min). The experimental procedures were performed by conventional whole-cell patch-clamp current recording technology. Unless otherwise stated, the experiment was performed at room temperature ([…]). The cells were clamped at a voltage of −80 mV. The cell clamp voltage was depolarized to +20 mV to activate the hERG potassium channel, and then clamped to −50 mV 5 s later to eliminate inactivation and generate tail currents. The tail current peak was used as a value for the numeral value of the hERG current. After the hERG potassium currents recorded in the above step were stable under the continuous extracellular fluid perfusion in the recording chamber, the drug to be tested could be added for perfusion until the inhibitory effect of the drug on the hERG current reached a stable state. Generally, the last superposition of 3 consecutive current recording lines is used as a criterion for determining whether a stable state is reached. […]
The experimental data were analyzed by data analysis software supplied by HEKA Patchmaster(V2x73.2), Microsoft Excel, and Graphpad Prism 5.0. […]

CYP1A2 = CYP1A2 (Homo sapiens (Human), UniProt P05177); assay: Inhibition of human liver microsome CYP450 enzyme, CYP1A2 phenacetin site; assay type: in vitro ADME; conditions: human liver microsomes, probe substrate phenacetin
Sequence of CYP1A2 (P05177 whole entry): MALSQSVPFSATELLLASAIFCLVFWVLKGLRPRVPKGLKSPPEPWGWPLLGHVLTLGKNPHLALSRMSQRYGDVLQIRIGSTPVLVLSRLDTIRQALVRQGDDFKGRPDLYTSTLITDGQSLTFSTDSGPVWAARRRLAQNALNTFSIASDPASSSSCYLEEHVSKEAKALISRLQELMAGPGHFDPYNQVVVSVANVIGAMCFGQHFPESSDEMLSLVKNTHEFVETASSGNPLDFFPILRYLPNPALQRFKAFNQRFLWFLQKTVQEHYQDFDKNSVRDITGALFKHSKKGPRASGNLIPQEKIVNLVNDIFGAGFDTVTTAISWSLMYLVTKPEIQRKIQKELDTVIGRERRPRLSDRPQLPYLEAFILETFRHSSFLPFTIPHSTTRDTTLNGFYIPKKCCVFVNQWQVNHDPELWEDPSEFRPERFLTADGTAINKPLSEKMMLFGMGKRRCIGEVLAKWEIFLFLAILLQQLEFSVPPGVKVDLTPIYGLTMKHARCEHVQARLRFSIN
Procedure: (§1) I. Materials and Instruments • 1. Phosphate buffered saline (20×PBS, purchased from Sangon); • 2. NADPH (ACROS, A2646-71-1); • 3. Human liver microsome (Corning Gentest, Cat No. 452161, Lot No. 905002, Donor35); • 4. ABI QTrap 4000 LC-MS System (AB Sciex); • 5. ZORBAX Extend-C18, 3×50 mm, 3.5 μm (Agilent, USA); • 6. CYP probe substrate.
(§2) An appropriate amount of human liver microsome stock solution (20 mg/mL) was diluted to obtain a 0.25 mg/mL microsome solution with 7.5 mM MgCl2 solution for later use (prepared right before use).
(§3) b. An appropriate amount of the stock solution was precisely pipetted, and diluted into series solution I at the concentrations of 10 mM, 3 mM, 1 mM, 0.3 mM, 0.03 mM and 0.003 mM with an appropriate amount of DMSO solution. An appropriate amount of the above series solution I was precisely pipetted, and diluted to obtain series solution II at the concentrations of 3 mM, 1 mM, 0.3 mM, 0.1 mM, 0.03 mM, 0.003 mM and 0.0003 mM with an appropriate amount of acetonitrile. An appropriate amount of the above series solution II was precisely pipetted, and diluted with PBS to obtain a working solution at the concentrations of 150 μM, 50 μM, 15 μM, 5 μM, 1.5 μM, 0.15 μM and 0.015 μM for later use.
(§4) 3. Procedures • 1) 40 μL of human liver microsome solution (0.25 mg/mL), 20 μL of probe substrate solution and 20 μL of test compound solution were precisely pipetted into a 96-well plate and pre-incubated for 5 min under a water bath at 37° C. • 2) After 5 min of pre-incubation, the mixture was taken out, 20 μL of 5 mM NADPH solution was added to initiate the reaction, and the resulting mixture was incubated for 30 min under a water bath at 37° C. […]
(§5) The values were calculated by Graphpad Prism to obtain the IC50 values for the inhibition of drugs on CYP1A2 phenacetin, CYP2C19 (S)-mephenytoin and CYP3A4M midazolam sites of metabolism in human liver microsomes, as shown in Table 7.

CYP2C19 = CYP2C19 (Homo sapiens (Human), UniProt P33261); assay: Inhibition of human liver microsome CYP450 enzyme, CYP2C19 (S)-mephenytoin site; assay type: in vitro ADME; conditions: human liver microsomes, probe substrate (S)-mephenytoin
Sequence of CYP2C19 (P33261 whole entry): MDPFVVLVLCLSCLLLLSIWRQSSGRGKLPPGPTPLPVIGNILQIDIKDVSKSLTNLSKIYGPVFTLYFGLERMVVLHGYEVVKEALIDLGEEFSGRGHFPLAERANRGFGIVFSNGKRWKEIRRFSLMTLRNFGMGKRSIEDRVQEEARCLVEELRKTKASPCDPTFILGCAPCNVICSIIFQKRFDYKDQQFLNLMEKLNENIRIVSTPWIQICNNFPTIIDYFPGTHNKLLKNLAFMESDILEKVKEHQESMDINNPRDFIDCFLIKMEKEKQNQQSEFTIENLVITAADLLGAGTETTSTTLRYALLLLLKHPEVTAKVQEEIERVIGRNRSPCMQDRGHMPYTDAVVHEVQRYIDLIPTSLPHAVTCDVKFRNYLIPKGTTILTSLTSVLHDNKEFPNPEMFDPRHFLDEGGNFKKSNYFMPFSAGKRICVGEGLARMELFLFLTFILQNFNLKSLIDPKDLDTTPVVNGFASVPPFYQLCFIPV
Procedure: as §1, §2, §3, §4, §5

CYP3A4M = CYP3A4M (Homo sapiens (Human), UniProt P08684); assay: Inhibition of human liver microsome CYP450 enzyme, CYP3A4M midazolam site; assay type: in vitro ADME; conditions: human liver microsomes, probe substrate midazolam
Sequence of CYP3A4M (P08684 whole entry): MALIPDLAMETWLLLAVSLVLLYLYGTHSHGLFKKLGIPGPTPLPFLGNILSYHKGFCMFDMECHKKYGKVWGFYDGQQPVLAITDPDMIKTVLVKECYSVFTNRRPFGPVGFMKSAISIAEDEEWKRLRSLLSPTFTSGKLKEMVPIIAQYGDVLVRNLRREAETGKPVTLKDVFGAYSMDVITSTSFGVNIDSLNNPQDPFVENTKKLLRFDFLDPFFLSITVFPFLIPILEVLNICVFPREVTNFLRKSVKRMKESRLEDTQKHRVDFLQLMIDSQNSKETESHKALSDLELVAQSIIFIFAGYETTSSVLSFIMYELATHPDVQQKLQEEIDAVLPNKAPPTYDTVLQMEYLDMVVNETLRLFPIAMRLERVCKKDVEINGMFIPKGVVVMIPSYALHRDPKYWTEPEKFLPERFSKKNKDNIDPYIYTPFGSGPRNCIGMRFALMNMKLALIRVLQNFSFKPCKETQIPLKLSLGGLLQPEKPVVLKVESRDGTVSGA
Procedure: as §1, §2, §3, §4, §5

`O=C(O)c1ccc2nc(CN3CCC(c4cccc5c4O[C@@H](c4ccc(Cl)cc4F)CO5)CC3)n(C[C@@H]3CCO3)c2c1` [Example 4, 2-((4-((S)-3-(4-Chloro-2-fluorophenyl)-2,3-dihydrobenzo[b][1,4]dioxan-5-yl)piperidin-1-yl)methyl)-1-(((S)-oxetan-2-yl)methyl)-1H-benzo[d]imidazole-6-carboxylic acid] showed an IC50 (hERG potassium channel) of 10.1 µM, an IC50 (CYP1A2) greater than 30 µM and an IC50 (CYP2C19) greater than 30 µM. For the same molecule, the IC50 (CYP3A4M) was greater than 30 µM.

Work on `O=C(O)c1ccc2nc(CN3CCC(c4cccc5c4O[C@@H](c4ccc(Cl)cc4F)CO5)CC3)n(C[C@@H]3CCO3)c2n1` [Example 5, 2-((4-((S)-3-(4-Chloro-2-fluorophenyl)-2,3-dihydrobenzo[b][1,4]dioxan-5-yl)piperidin-1-yl)methyl)-3-((S)-oxetan-2-ylmethyl)-3H-imidazo[4,5-b]pyridine-5-carboxylic acid] yielded an IC50 (hERG potassium channel) of 25.9 µM, an IC50 (CYP1A2) greater than 30 µM and an IC50 (CYP2C19) greater than 30 µM. The IC50 (CYP3A4M) was greater than 30 µM.

`C[C@]1(c2ccc(Cl)cc2F)Oc2cccc(C3CCN(Cc4nc5ccc(C(=O)O)cc5n4C[C@@H]4CCO4)CC3)c2O1` [Positive compound 1, reference compound] gave an IC50 (hERG potassium channel) of 4.6 µM, an IC50 (CYP1A2) of 12.5 µM and an IC50 (CYP2C19) of 7.4 µM. It also gave an IC50 (CYP3A4M) of 25.5 µM.
